Target: G-protein coupled receptor 52 (Homo sapiens, UniProt Q9Y2T5)
Experiment: Antagonist activity at GPR52 (unknown origin) expressed in HEK293 cells assessed as inhibition of WO459-induced cAMP accumulation preincubated for 15 mins followed by WO459 addition and measured after 30 mins by LANCE Ultra cAMP kit based microplate reader analysis
Format: functional, cell-based
Conditions: read-out: IC50

G-protein coupled receptor 52, sequence (Q9Y2T5 whole entry): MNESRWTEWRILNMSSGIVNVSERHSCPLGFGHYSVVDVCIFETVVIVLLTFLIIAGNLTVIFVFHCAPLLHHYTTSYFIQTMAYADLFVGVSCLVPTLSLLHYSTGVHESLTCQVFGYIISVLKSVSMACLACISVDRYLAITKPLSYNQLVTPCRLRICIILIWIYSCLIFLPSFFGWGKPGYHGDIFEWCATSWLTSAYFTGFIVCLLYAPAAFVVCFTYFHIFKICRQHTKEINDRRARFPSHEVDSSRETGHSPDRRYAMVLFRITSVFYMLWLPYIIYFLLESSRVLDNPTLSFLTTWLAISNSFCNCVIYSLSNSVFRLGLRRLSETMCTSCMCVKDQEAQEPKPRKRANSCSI

IC50: 1720 nM
Compound: COc1ccccc1C(=O)/C=C/CCc1ccccc1

— ChEMBL document CHEMBL4706623, “GPR52 Antagonist Reduces Huntingtin Levels and Ameliorates Huntington's Disease-Related Phenotypes” (J Med Chem, 2021)
